Measurements as given in patent US20230027026A1, “FUSED PYRIMIDINE COMPOUNDS, COMPOSITIONS AND MEDICINAL APPLICATIONS THEREOF” (JUBILANT BIOSYS LIMITED, priority 2019, published 2023).
pIC50: −log10 of the molar value. Where two headings read alike, the source gives them in different places.

Experiments:
Type in all cases: cell-based
[1] = system: A431 cells; assay: Cellular proliferation (Alamar Blue) assay, A431; settings: Homo sapiens; for IC50: A-431, 72 h, read-out: A431 IC50 (nM); for pIC50: A-431, A431 cells, 72 hr, Alamar Blue, read-out: A431 IC50
Procedure: (§1) Example 3: Cellular Proliferation (Alamar Blue) Assays
(§2) • 1. EGFR(D770_N771insSVD) expressing Ba/F3 stable cell line • 2. EGFR (A767_dupASV) expressing Ba/F3 stable cell line • 3. A431 cells • 4. BTER2 (A775_G776insYVMA) expressing Ba/F3 stable cell line • 5. BTER2 (WT) expressing Ba/F3 stable cell line • 6. BT-474 cells
(§3) • 1. Seed cells at 5000 for A431 and 15,000 cells for Ba/F3 in 100 μL/well in complete media (for A431: DMEM with 10% FBS and for Ba/F3 cells: RPMI with 10% FBS) in 96-well tissue culture plate. Leave outer wells without cells for background measurements. Incubate at 37 degree Celsius in 5% CO2 humidified incubator for 16-18 hours. • 2. Add 0.025 ml of 5× concentration compound dilution or DMSO control. Final compound concentration range is 10-0.0005 μM prepared in 3-fold serial dilutions. Incubate for 72 hr at 37 degree Celsius in […] humidified incubator. • 3. Add 0.0125 mL Alamar Blue™ reagent to each well with multi-channel pipette and tap gently on each side of the plate to mix. Incubate for 3 hours at 37 degree Celsius in […] humidified incubator. • 4. Read plates on fluorescence reader (Tecan Spark Control, Device: Spark, Serial #: 1801006040) at 540 nm excitation, 590 nm emission wavelength. • 5. Data analysis was performed using XLfit 5.5.0.5.

[2] = molecular target: EGFR (A767_dupASV) expressing Ba/F3 stable cell line (Homo sapiens, UniProt P00533, DUP767-769, cells depend on it); assay: Cellular proliferation (Alamar Blue) assay, EGFR A767_dupASV Ba/F3; settings: EGFR A767_dupASV Ba/F3, 72 hr, read-out: A767 IC50
Procedure: as §1, §2, §3

[3] = molecular target: EGFR(D770_N771insSVD) expressing Ba/F3 stable cell line (Homo sapiens, UniProt P00533, DUP768-770, cells depend on it); assay: Cellular proliferation (Alamar Blue) assay, EGFR D770_N771insSVD Ba/F3; settings: EGFR D770_N771insSVD Ba/F3, 72 hr, read-out: D770 IC50
Procedure: as §1, §2, §3

EGFR(D770_N771insSVD) expressing Ba/F3 stable cell line, sequence (P00533 with tags, fused parts or gaps DUP768-770): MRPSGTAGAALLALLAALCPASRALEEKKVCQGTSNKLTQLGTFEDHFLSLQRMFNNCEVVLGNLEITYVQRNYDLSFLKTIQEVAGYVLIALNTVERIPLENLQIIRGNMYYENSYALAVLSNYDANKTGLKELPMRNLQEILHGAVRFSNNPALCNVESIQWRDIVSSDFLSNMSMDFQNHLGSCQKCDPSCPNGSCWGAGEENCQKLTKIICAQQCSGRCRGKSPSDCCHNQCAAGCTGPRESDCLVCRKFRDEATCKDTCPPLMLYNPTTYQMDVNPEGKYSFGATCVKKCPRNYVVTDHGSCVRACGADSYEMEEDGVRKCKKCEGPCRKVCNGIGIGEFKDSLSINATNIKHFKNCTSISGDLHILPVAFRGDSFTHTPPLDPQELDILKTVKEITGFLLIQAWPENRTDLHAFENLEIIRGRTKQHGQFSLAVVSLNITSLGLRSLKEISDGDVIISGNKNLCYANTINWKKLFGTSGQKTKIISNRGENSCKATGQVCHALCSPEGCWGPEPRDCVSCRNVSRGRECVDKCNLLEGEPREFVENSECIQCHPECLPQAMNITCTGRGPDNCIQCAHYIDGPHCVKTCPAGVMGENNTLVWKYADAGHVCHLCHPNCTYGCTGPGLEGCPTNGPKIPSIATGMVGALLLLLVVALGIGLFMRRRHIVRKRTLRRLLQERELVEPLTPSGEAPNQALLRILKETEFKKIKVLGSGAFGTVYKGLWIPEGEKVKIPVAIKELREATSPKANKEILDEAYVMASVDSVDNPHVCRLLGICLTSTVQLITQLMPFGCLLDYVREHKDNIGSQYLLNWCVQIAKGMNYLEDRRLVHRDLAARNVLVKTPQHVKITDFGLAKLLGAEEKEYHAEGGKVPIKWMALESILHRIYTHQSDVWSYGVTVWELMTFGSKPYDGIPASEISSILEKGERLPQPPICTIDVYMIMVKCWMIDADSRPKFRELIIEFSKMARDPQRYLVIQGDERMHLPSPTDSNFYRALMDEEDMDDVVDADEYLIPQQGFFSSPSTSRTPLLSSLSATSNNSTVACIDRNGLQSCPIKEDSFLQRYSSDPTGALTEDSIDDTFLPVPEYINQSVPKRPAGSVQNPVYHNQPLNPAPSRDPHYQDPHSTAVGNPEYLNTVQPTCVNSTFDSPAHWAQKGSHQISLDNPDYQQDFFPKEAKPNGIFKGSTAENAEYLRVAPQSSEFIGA
EGFR (A767_dupASV) expressing Ba/F3 stable cell line, sequence (P00533 with tags, fused parts or gaps DUP767-769): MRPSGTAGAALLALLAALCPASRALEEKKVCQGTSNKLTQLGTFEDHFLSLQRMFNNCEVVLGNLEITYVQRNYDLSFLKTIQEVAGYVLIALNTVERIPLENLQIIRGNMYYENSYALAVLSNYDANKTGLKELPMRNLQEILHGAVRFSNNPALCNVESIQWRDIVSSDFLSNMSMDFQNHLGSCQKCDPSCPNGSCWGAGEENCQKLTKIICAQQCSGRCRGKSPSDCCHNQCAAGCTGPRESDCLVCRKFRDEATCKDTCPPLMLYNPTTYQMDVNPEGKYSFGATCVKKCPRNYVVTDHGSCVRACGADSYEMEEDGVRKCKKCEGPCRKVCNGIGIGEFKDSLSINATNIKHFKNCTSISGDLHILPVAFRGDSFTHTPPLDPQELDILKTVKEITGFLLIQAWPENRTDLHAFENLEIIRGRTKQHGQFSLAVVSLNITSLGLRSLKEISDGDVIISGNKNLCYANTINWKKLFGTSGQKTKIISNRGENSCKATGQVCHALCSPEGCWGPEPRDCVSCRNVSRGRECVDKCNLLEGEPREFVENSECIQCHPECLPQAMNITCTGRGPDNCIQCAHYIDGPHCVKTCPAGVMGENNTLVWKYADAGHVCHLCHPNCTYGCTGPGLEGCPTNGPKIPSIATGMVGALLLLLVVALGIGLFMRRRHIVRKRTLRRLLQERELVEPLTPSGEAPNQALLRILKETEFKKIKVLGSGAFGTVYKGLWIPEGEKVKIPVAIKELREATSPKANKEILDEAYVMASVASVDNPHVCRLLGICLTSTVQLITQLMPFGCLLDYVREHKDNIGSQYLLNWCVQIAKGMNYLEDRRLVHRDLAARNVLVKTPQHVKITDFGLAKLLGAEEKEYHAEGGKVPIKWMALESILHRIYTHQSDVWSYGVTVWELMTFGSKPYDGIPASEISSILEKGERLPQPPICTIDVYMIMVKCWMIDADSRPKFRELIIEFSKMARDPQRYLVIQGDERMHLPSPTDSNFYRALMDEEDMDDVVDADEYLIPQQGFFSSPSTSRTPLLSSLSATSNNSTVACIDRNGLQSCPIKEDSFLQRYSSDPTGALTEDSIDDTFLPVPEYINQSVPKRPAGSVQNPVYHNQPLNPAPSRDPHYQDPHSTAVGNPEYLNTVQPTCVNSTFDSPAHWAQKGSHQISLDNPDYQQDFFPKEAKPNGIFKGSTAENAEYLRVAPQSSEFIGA

Row | Structure (SMILES) | GI50 [2] | GI50 [3] | pIC50 [1] | IC50 [1]
1 | C[C@H](c1ccccc1)N1Cc2cnc(Nc3cnn(C)c3)nc2N(c2cccc(NC(=O)/C=C/CN(C)C)c2)C1=O (single isomer, unassigned) [Compound 133] | 1120 nM | 2690 nM | – | ≥ 10000 nM
2 | C[C@@H](c1ccccc1)N1Cc2cnc(Nc3cnn(C)c3)nc2N(c2cccc(NC(=O)/C=C/CN(C)C)c2)C1=O (single isomer, unassigned) [Compound 134] | 109 nM | 103 nM | – | ≥ 10000 nM
3 | CN(C)C/C=C/C(=O)Nc1cccc(N2C(=O)N(Cc3ccccc3)Cc3cnc(Nc4ccn(C)n4)nc32)c1 [Compound 52, (E)-N-(3-(3-benzyl-7-((1-methyl-1H-pyrazol-3-yl)amino)-2-oxo-3,4-dihydropyrimido[4,5-d]pyrimidin-1(2H)-yl)phenyl)-4-(dimethylamino)but-2-enamide] | 244 nM | 341 nM | ≤ 5.00 | –
4 | CN(C)C/C=C/C(=O)Nc1cccc(N2C(=O)N(Cc3ccccc3)Cc3cnc(Nc4ccc(N5CCOCC5)nc4)nc32)c1 [Compound 54, (E)-N-(3-(3-benzyl-7-((6-morpholinopyridin-3-yl)amino)-2-oxo-3,4-dihydropyrimido[4,5-d]pyrimidin-1(2H)-yl)phenyl)-4-(dimethylamino)but-2-enamide] | 224 nM | 337 nM | ≤ 5.00 | –
5 | CN(C)C/C=C/C(=O)Nc1cccc(N2C(=O)N(Cc3ccccc3)Cc3cnc(Nc4cnc(N5CCOCC5)nc4)nc32)c1 [Compound 55, (E)-N-(3-(3-benzyl-7-((2-morpholinopyrimidin-5-yl)amino)-2-oxo-3,4-dihydropyrimido[4,5-d]pyrimidin-1(2H)-yl)phenyl)-4-(dimethylamino)but-2-enamide] | 1670 nM | 3860 nM | ≤ 5.00 | –
6 | CN(C)C/C=C/C(=O)Nc1cccc(N2C(=O)N(Cc3ccc(F)cc3)Cc3cnc(Nc4cn(C)nc4Cl)nc32)c1 [Compound 57, (E)-N-(3-(7-((3-chloro-1-methyl-1H-pyrazol-4-yl)amino)-3-(4-fluorobenzyl)-2-oxo-3,4-dihydropyrimido[4,5-d]pyrimidin-1(2H)-yl)phenyl)-4-(dimethylamino)but-2-enamide] | 115 nM | 476 nM | ≤ 5.00 | –
7 | CN(C)C/C=C/C(=O)Nc1cccc(N2C(=O)N(Cc3ccccc3)Cc3cnc(Nc4cnoc4)nc32)c1 [Compound 58, (E)-N-(3-(3-benzyl-7-(isoxazol-4-ylamino)-2-oxo-3,4-dihydropyrimido[4,5-d]pyrimidin-1(2H)-yl)phenyl)-4-(dimethylamino)but-2-enamide] | 801 nM | 2110 nM | ≤ 5.00 | –
8 | CN(C)C/C=C/C(=O)Nc1cccc(N2C(=O)N(Cc3ccccc3)Cc3cnc(Nc4cnc(N5CCN(C)CC5)nc4)nc32)c1 [Compound 59, (E)-N-(3-(3-benzyl-7-((2-(4-methylpiperazin-1-yl)pyrimidin-5-yl)amino)-2-oxo-3,4-dihydropyrimido[4,5-d]pyrimidin-1(2H)-yl)phenyl)-4-(dimethylamino)but-2-enamide] | 8660 nM | ≥ 10000 nM | ≤ 5.00 | –
9 | CN(C)C/C=C/C(=O)N(C)c1cccc(N2C(=O)N(Cc3ccccc3)Cc3cnc(Nc4cn(C)nc4Cl)nc32)c1 [Compound 63, (E)-N-(3-(3-benzyl-7-((3-chloro-1-methyl-1H-pyrazol-4-yl)amino)-2-oxo-3,4-dihydropyrimido[4,5-d]pyrimidin-1(2H)-yl)phenyl)-4-(dimethylamino)-N-methylbut-2-enamide] | 532 nM | 1460 nM | ≤ 5.00 | –

The next lines start with results.

Row | GI50 [2] | GI50 [3] | pIC50 [1] | Structure (SMILES) | IC50 [1]
10 | 474 nM | 1050 nM | ≤ 5.00 | CN(C)C/C=C/C(=O)Nc1cccc(N2C(=O)N(Cc3ccccc3)Cc3cnc(Nc4cnc5c(cnn5C)c4)nc32)c1 [Compound 53, (E)-N-(3-(3-benzyl-7-((1-methyl-1H-pyrazolo[3,4-b]pyridin-5-yl)amino)-2-oxo-3,4-dihydropyrimido[4,5-d]pyrimidin-1(2H)-yl)phenyl)-4-(dimethylamino)but-2-enamide] | –
11 | 65 nM | 107 nM | ≤ 5.00 | COc1nn(C)cc1Nc1ncc2c(n1)N(c1cccc(NC(=O)/C=C/CN(C)C)c1)C(=O)N(Cc1ccccc1)C2 [Compound 56, (E)-N-(3-(3-benzyl-7-((3-methoxy-1-methyl-1H-pyrazol-4-yl)amino)-2-oxo-3,4-dihydropyrimido[4,5-d]pyrimidin-1(2H)-yl)phenyl)-4-(dimethylamino)but-2-enamide] | –
12 | 1700 nM | 2390 nM | ≤ 5.00 | Cc1nocc1Nc1ncc2c(n1)N(c1cccc(NC(=O)/C=C/CN(C)C)c1)C(=O)N(Cc1ccccc1)C2 [Compound 60, (E)-N-(3-(3-benzyl-7-((3-methylisoxazol-4-yl)amino)-2-oxo-3,4-dihydropyrimido[4,5-d]pyrimidin-1(2H)-yl)phenyl)-4-(dimethylamino)but-2-enamide] | –
13 | 58 nM | 105 nM | ≤ 5.00 | CN(C)C/C=C/C(=O)Nc1cccc(N2C(=O)N(Cc3ccc(F)cc3F)Cc3cnc(Nc4cn(C)nc4Cl)nc32)c1 [Compound 61, (E)-N-(3-(7-((3-chloro-1-methyl-1H-pyrazol-4-yl)amino)-3-(2,4-difluorobenzyl)-2-oxo-3,4-dihydropyrimido[4,5-d]pyrimidin-1(2H)-yl)phenyl)-4-(dimethylamino)but-2-enamide] | –
14 | 2260 nM | 5480 nM | ≤ 5.00 | COc1cc(CN2Cc3cnc(Nc4cn(C)nc4Cl)nc3N(c3cccc(NC(=O)/C=C/CN(C)C)c3)C2=O)ccn1 [Compound 62, (E)-N-(3-(7-((3-chloro-1-methyl-1H-pyrazol-4-yl)amino)-3-((2-methoxypyridin-4-yl)methyl)-2-oxo-3,4-dihydropyrimido[4,5-d]pyrimidin-1(2H)-yl)phenyl)-4-(dimethylamino)but-2-enamide] | –
15 | 809 nM | 1030 nM | ≤ 5.00 | CN(C)C/C=C/C(=O)Nc1cccc(N2C(=O)N(Cc3ccccc3)Cc3cnc(Nc4cn(C)nc4Cl)cc32)c1 [Compound 64, (E)-N-(3-(3-benzyl-7-((3-chloro-1-methyl-1H-pyrazol-4-yl)amino)-2-oxo-3,4-dihydropyrido[4,3-d]pyrimidin-1(2H)-yl)phenyl)-4-(dimethylamino)but-2-enamide] | –
16 | 336 nM | 342 nM | ≤ 5.00 | COC/C=C/C(=O)Nc1cccc(N2C(=O)N(Cc3ccccc3)Cc3cnc(Nc4cn(C)nc4Cl)nc32)c1 [Compound 76, (E)-N-(3-(3-benzyl-7-((3-chloro-1-methyl-1H-pyrazol-4-yl)amino)-2-oxo-3,4-dihydropyrimido[4,5-d]pyrimidin-1(2H)-yl)phenyl)-4-methoxybut-2-enamide] | –
17 | ≥ 10000 nM | 9130 nM | ≤ 5.00 | C=CC(=O)Nc1cc(N2C(=O)N(Cc3ccccc3)Cc3cnc(Nc4cn(C)nc4Cl)nc32)ccc1OC [Compound 77, N-(5-(3-benzyl-7-((3-chloro-1-methyl-1H-pyrazol-4-yl)amino)-2-oxo-3,4-dihydropyrimido[4,5-d]pyrimidin-1(2H)-yl)-2-methoxyphenyl)acrylamide] | –
